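Test compounds were applied to cells in 96-well plates for 48 hours at 5 doses. Abbreviation: GI50, concentration required for 50% inhibition of growth.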 Calls of active or inactive are those of the source. No stated cut-off is given here; in the data, active = GI50 up to about 1.1 µM and inactive = higher.
How the values were obtained:
Experiment in all cases: growth of human tumour cells (NCI), 48 h
OVCAR-8 = tested on: OVCAR-8
Malme-3M = tested on: Malme-3M
PC-3 = tested on: PC-3
MDA-MB-231 = tested on: MDA-MB-231
MDA-MB-435 = tested on: MDA-MB-435
DU-145 = tested on: DU-145
OVCAR-4 = tested on: OVCAR-4
TK-10 = tested on: TK-10
Hs-578T = tested on: Hs-578T
RXF 393 = tested on: RXF 393
HOP-92 = tested on: HOP-92
MOLT-4 = tested on: MOLT-4
LOX IMVI = tested on: LOX IMVI
ACHN = tested on: ACHN
HCT-116 = tested on: HCT-116
HL-60 = tested on: HL-60
MDA-N = tested on: MDA-N
SF-295 = tested on: SF-295
A498 = tested on: A498

Compound	GI50 (OVCAR-8)	GI50 (Malme-3M)	GI50 (PC-3)	GI50 (MDA-MB-231)	GI50 (MDA-MB-435)	GI50 (DU-145)	GI50 (OVCAR-4)	GI50 (TK-10)	GI50 (Hs-578T)	GI50 (RXF 393)	GI50 (HOP-92)	GI50 (MOLT-4)	GI50 (LOX IMVI)	GI50 (ACHN)	GI50 (HCT-116)	GI50 (HL-60)	GI50 (MDA-N)	GI50 (SF-295)	GI50 (A498)
O=C(c1ccccc1)c1c(C(F)(F)F)[n+]([O-])c2cc(Cl)c(Cl)cc2[n+]1[O-]	2.65 µM (inactive)	1.72 µM (inactive)	1.18 µM (inactive)	0.229 µM (active)	1.41 µM (inactive)	0.45 µM (active)	1.56 µM (inactive)	1.07 µM (active)	0.849 µM (active)	1.82 µM (inactive)	7.01 µM (inactive)	0.643 µM (active)	0.41 µM (active)	0.764 µM (active)	0.528 µM (active)	0.789 µM (active)	1.79 µM (inactive)	3.21 µM (inactive)	–
C/C(=N\NC(=S)Nc1ccc(C)cc1)c1nc2cccnc2[nH]1	3.05 µM (inactive)	4.86 µM (inactive)	1.73 µM (inactive)	1.17 µM (inactive)	2.94 µM (inactive)	2.59 µM (inactive)	0.25 µM (active)	2.67 µM (inactive)	10.8 µM (inactive)	–	6.38 µM (inactive)	1.27 µM (inactive)	1.41 µM (inactive)	1.44 µM (inactive)	1.6 µM (inactive)	2.22 µM (inactive)	4.63 µM (inactive)	3.07 µM (inactive)	7.71 µM (inactive)
C(#CP(c1ccccc1)c1ccccc1)P(C#CP(c1ccccc1)c1ccccc1)c1ccccc1	> 100 µM (inactive)	> 100 µM (inactive)	> 100 µM (inactive)	> 100 µM (inactive)	> 100 µM (inactive)	> 100 µM (inactive)	> 100 µM (inactive)	> 100 µM (inactive)	> 100 µM (inactive)	> 100 µM (inactive)	> 100 µM (inactive)	> 100 µM (inactive)	–	> 100 µM (inactive)	> 100 µM (inactive)	> 100 µM (inactive)	> 100 µM (inactive)	5.9 µM (inactive)	> 100 µM (inactive)
CN(/N=C/c1ccc(OCc2cccc(COc3ccc(C=O)cc3)n2)cc1)c1cnn(-c2ccc(Cl)cc2Cl)c(=O)c1Cl	> 100 µM (inactive)	84.1 µM (inactive)	> 100 µM (inactive)	20.7 µM (inactive)	> 100 µM (inactive)	> 100 µM (inactive)	6.9 µM (inactive)	64.9 µM (inactive)	> 100 µM (inactive)	21.5 µM (inactive)	–	> 100 µM (inactive)	88.1 µM (inactive)	73.5 µM (inactive)	> 100 µM (inactive)	> 100 µM (inactive)	> 100 µM (inactive)	20.2 µM (inactive)	48.5 µM (inactive)
CN(C)CCNC(=O)c1cccc2c(NCC(=O)O)c3ccccc3nc12	4.61 µM (inactive)	11 µM (inactive)	10.5 µM (inactive)	14.7 µM (inactive)	11.4 µM (inactive)	25.3 µM (inactive)	9.82 µM (inactive)	31 µM (inactive)	18.5 µM (inactive)	–	8.04 µM (inactive)	4.08 µM (inactive)	4.97 µM (inactive)	5.82 µM (inactive)	4.67 µM (inactive)	> 100 µM (inactive)	14 µM (inactive)	10.9 µM (inactive)	18.6 µM (inactive)
O=C(O)c1ccc(NNC(=O)c2cccc3c(=O)c4ccccc4[nH]c23)cc1	> 100 µM (inactive)	97.9 µM (inactive)	> 100 µM (inactive)	75.3 µM (inactive)	> 100 µM (inactive)	> 100 µM (inactive)	> 100 µM (inactive)	> 100 µM (inactive)	> 100 µM (inactive)	> 100 µM (inactive)	65 µM (inactive)	78.9 µM (inactive)	44.6 µM (inactive)	74.1 µM (inactive)	> 100 µM (inactive)	50.8 µM (inactive)	> 100 µM (inactive)	> 100 µM (inactive)	–
CC(C)(C)OC(=O)Cn1ncn(NC(=O)Cc2ccccc2)c1=O	> 10 µM (inactive)	> 10 µM (inactive)	> 10 µM (inactive)	> 10 µM (inactive)	> 10 µM (inactive)	> 10 µM (inactive)	> 10 µM (inactive)	> 10 µM (inactive)	> 10 µM (inactive)	–	> 10 µM (inactive)	> 10 µM (inactive)	> 10 µM (inactive)	> 10 µM (inactive)	> 10 µM (inactive)	–	> 10 µM (inactive)	> 10 µM (inactive)	> 10 µM (inactive)
Cc1cc(C)nc(NC(=S)Nc2ccc(Cl)cc2)c1	20.1 µM (inactive)	34.8 µM (inactive)	> 100 µM (inactive)	74.8 µM (inactive)	> 100 µM (inactive)	> 100 µM (inactive)	18.4 µM (inactive)	33.7 µM (inactive)	21.5 µM (inactive)	36.1 µM (inactive)	–	> 100 µM (inactive)	> 100 µM (inactive)	–	> 100 µM (inactive)	> 100 µM (inactive)	> 100 µM (inactive)	43.1 µM (inactive)	48.3 µM (inactive)

Reference: ChEMBL document CHEMBL1201862, “PubChem BioAssay data set” (2004)
